Measured values as given in patent publication US5614504A, “Method of making inosine monophosphate derivatives and immunopotentiating uses thereof” (The University of South Florida, priority 1995, dated 1997).

Assays:
[1] = in man; cited from earlier work
in vitro = in vitro ADME, Crotalus atrox; details: rattlesnake, pH 7.3; 0.02 units 5'-nucleotidase, 37° C., 10 minutes; four experiments; read-out: Hydrolysis (%)
Experimental: (§1) Nucleotide samples (40-60 nmoles) were incubated at 37° C. for 10 minutes with 0.02 units 5'-nucleotidase in a total volume of 100 μl containing […] HEPES, pH 7.3 and […] MgCl2. […] Phosphate was determined by the absorbance of 820 nm. Blanks consisting of nucleotide but no enzyme were tested in parallel to correct for non-enzymatic hydrolysis.

[2] = tested on: 5'-nucleotidase (from Crotalus atrox venom); assay: in vitro; type: in vitro ADME; details: in words
Experimental: as §1

[3] = tested on: human peripheral blood lymphocytes (HPBL); assay: Response of normal HPBL to PHA (tritiated thymidine incorporation); type: cell-based; details: 0.1-100 μg/ml; FIG. 1
Experimental: (§2) In vitro: Both human peripheral blood lymphocytes (HPBL) and mouse spleen lymphocytes (MSL) were employed. […] For HPBL transformation, PHA and PWM were used at 0.5 μg/ml. For MSL transformation, Con A was used at 0.5 μg/ml, phytohemagglutinin (PHA, Murex Diagnostics, Atlanta, Ga.) at 0.5 μg/ml and lipopolysaccharide endotoxin (LPS, Sigma, St. Louis, Mo.) at 10 μg/ml.
(§3) They were cultured in microwell plates at 1.5×10^6 cells/ml of minimal essential media (MEM, Gibco Labs, Grand Island, N.Y.) with 5% fetal calf serum (FCS, Hyclone Labs, Logan, Utah) and tested for their proliferative response to mitogens as measured by incorporation of (^3 H) tritiated thymidine (New England Nuclear, Wilmington Del., […]; 2.5 μCi/ml) during a terminal pulse followed by liquid scintillation spectrometry.

[4] = tested on: mouse spleen lymphocytes (MSL); assay: Mouse spleen lymphocyte proliferation to Con A; type: cell-based; details: 0.1, 1, 10, 100 μg/ml; Con A 0.5 μg/ml
Experimental: as §2, §3

[5] = tested on: spleen plaque antibody forming cells (PFC); assay: In vivo stimulation of PFC response to SRBC; set-up: species or system mice; details: for effect on PFC response: 50 mg/kg of body weight ip with SRBC, PFC five days later; for dose of optimal stimulation of PFC response: intraperitoneal
Experimental: Five days later, suspensions of spleen cells were prepared and their viability was determined by trypan blue exclusion test. Cells were suspended at 3×10^6 /ml. 0.2 ml of spleen cell suspension was mixed with 0.8 ml of 0.7% agarose and 0.2 ml of freshly washed SRBC (at 6×10^5 /ml). The mixture was immediately poured into the plate and allowed to solidify. After 60 minutes of incubation at 37° C. in a humid atmosphere of 5% CO2 in the air, the plate was flooded with 1 ml of guinea-pig complement diluted 1:5 with Hank's balanced saline. Hemolytic plaques were counted with an inverted scope using 4× magnification.
Spleen plaque antibody forming cells (PFC) were measured at the end of the five days.

influenza virus = type: in vivo, NMRI mice; details: Squalane alone

Molecule | half-life [1] | metabolised at 10 min (in vitro) [%] | resistance to hydrolysis by 5'-nucleotidase [2] | relative activity on HPBL response to PHA [3] | proliferative responses of MSL to Con A [4] | effect on PFC response [5] | dose of optimal stimulation of PFC response [5] | effect on survival after influenza challenge (influenza virus)
isoprinosine | less than four | – | – | – | – | – | – | –
N=C(N)NCCC[C@H](NP(=O)(O)OC[C@H]1O[C@@H](n2cnc3c(=O)[nH]cnc32)[C@H](O)[C@@H]1O)C(=O)O [Arg-IMP, Arginine-5'-inosine-monophosphate] | – | 12 | moderate | more active | stimulated the proliferative responses | significantly stimulated | 50 mg/kg of body weight | –
CC(CCCC(C)(C)O)NP(=O)(O)OC[C@H]1O[C@@H](n2cnc3c(=O)[nH]cnc32)[C@H](O)[C@@H]1O (stereo partly shown) [Ha-IMP, (Heptamin-1-ol)-5'-inosine-monophosphate] | – | 76 | mild | low | stimulated the proliferative responses | significantly stimulated | 50 mg/kg of body weight | –
Nc1ncnc2c1ncn2[C@@H]1O[C@H](COP(=O)(O)O)[C@@H](O)[C@H]1O [Adenosine MP, adenosine-5'-monophosphate, reference compound] | – | 86 | – | – | – | – | – | –
CC(C)CCCC(C)CCCC(C)CCCCC(C)CCCC(C)CCCC(C)C (stereo not shown) [Squalane, reference compound] | – | – | – | – | – | – | – | no effect
CCOP(=O)(O)OC[C@H]1O[C@@H](n2cnc3c(=O)[nH]cnc32)[C@H](O)[C@@H]1O [E-IMP, Ethyl-5'-inosine-monophosphate] | – | 2.9 | extremely resistant | more active | stimulated the proliferative responses | – | – | –
